Measured values as given in US11534457B2, “Use of dextran sulfate” (priority 2017, dated 2022).

Test system: closed-head diffuse severe TBI (sTBI)
Assay: sTBI in rats, dose study, HPLC of energy metabolites, antioxidants, oxidative/nitrosative stress biomarkers, NAA (Example 7)
Type: in vivo, Male Wistar rats
Protocol: Male Wistar rats (n=160) of 300-350 g body weight were used in this study. They were fed with standard laboratory diet and water ad libitum in a controlled environment.
As the accepted anesthetic mixture, animals received 35 mg/kg b.w. ketamine and 0.25 mg/kg body weight midazolam by intramuscular injection. Diffuse sTBI was induced according to the “weight drop” impact acceleration model set up by Marmarou et al. J. Neurosurg. 1994, 80: 291-300. This model causes diffuse axonal injury and it is able to reproduce the physical and mechanical characteristics of the diffuse TBI in humans.
Severe TBI was induced by dropping a 450 g weight from 2 meters height onto the rat head protected by a helmet (metal disk previously fixed on the skull using dental cement) in order to uniformly distribute the mechanical force to the brain. Rats were placed prone on a bed of specific polyurethane foam inserted in a special container; this foam dissipates the major part of the potential energy (deriving from the mechanical forces) and prevents any rebound of the animal after the impact that could produce spinal damages.
After 2 or 7 days from TBI induction, rats were anesthetized again and then immediately sacrificed. These time points are coincident with the worst biochemical derangement (2 days) or, in the case of a mildly injured brain, with a full metabolic recovery (7 days).
The drug treatment consisted in a subcutaneous injection of 0.5 ml of LMW-DS (Tikomed) and administered at 3 different concentrations (1, 5 and 15 mg/kg body weight), according to the schematic protocol described below.
(§1) Rats subjected to sTBI and receiving a single administration of LMW-DS after 30 minutes post-TBI, with sacrifice at 2 days post-TBI. Animals were divided in the following subgroups: • 1. 12 animals subjected to sTBI and treated with 1 mg/kg b.w. LMW-DS • 2. 12 animals subjected to sTBI and treated with 5 mg/kg b.w. LMW-DS • 3. 12 animals subjected to sTBI and treated with 15 mg/kg b.w. LMW-DS
as §1, with “at 7” for “at 2”
Rats (n=12) subjected to sTBI and receiving repeated administrations of the maximal dose of LMW-DS (15 mg/kg b.w.) after 30 minutes, 3 days and 5 days post-TBI, with sacrifice at 7 days post-TBI. Four additional rats were used for the histo-morphological studies. Total rats in this group: n=16
To minimize metabolite loss, an in vivo craniectomy was performed in all animals during anesthesia. The rat skull was carefully removed, the brain was exposed, sharply cut along the sagittal fissure and the two hemispheres were separated. The hemispheres dedicated to biochemical analyses were freeze-clamped by aluminum tongues pre-cooled in liquid nitrogen and then immersed in liquid nitrogen. The freeze-clamping procedure was introduced to accelerate freezing of the tissue, thus minimizing potential metabolite loss.
Tissue homogenization for metabolite analyses was effected as described below. After the wet weight (w.w.) determination, the frozen hemispheres were placed into 7 ml of ice-cold, nitrogen-saturated, precipitating solution (1:10 w/v) composed by CH3CN+10 mM KH2PO4, pH 7.40, (3:1; v:v), and the homogenization was performed using an Ultra-Turrax homogenizer set at 24,000 rpm/min (Janke & Kunkel, Staufen, Germany). After centrifugation at 20,690×g, for 10 min at 4° C., the clear supernatants were saved, pellets were supplemented with an aliquot of 10 mM KH2PO4 and homogenized again as described above and saved overnight at −20° C. in order to obtain a complete recovery of aqueous phase from tissue. […]

[1] = 1 mg/kg s.c. single, 30 min post-sTBI, sacrifice 2 days
[2] = 15 mg/kg s.c. single, 30 min post-sTBI, sacrifice 2 days
[3] = 2 days post sTBI, 5 or 15 mg/kg b.w.
[4] = rats, 7 days post-sTBI, single administration of 15 mg/kg b.w.

Substance: low molecular weight dextran sulfate [LMW-DS]
- CDP choline, brain concentration [1]: 8.23 ± 1.22 nmol/g w.w.
- GDP Glucose, brain concentration [1]: 65.66 ± 41.61 nmol/g w.w.
- UDP-Glc, brain concentration [1]: 45.14 ± 6.68 nmol/g w.w.
- UDP-GlcNac, brain concentration [1]: 96.62 ± 8.80 nmol/g w.w.
- NAD^+/NADH ratio, brain (1 mg/kg s.c. single, 30 min post-sTBI, sacrifice 2 days, adimensional): 33.91 ± 9.32
- NAD^+/ADH, brain (1 mg/kg s.c. single, 30 min post-sTBI, sacrifice 7 days): 33.91 ± 9.32
- GDP Glucose, brain concentration (5 mg/kg s.c. single, 30 min post-sTBI, sacrifice 2 days): 83.81 ± 37.35 nmol/g w.w.
- CYTIDINE, brain concentration [2]: 11.46 ± 2.07 nmol/g w.w.
- GDP Glucose, brain concentration [2]: 84.24 ± 37.54 nmol/g w.w.
- UDP-Glc, brain concentration [2]: 43.41 ± 06.43 nmol/g w.w.
- β-PSEUDOURIDINE, brain concentration [2]: 7.84 ± 1.57 nmol/g w.w.
- ascorbic acid and reduced glutathione (GSH) (2 days post sTBI): significantly ameliorated
- cerebral tissue nitrites and nitrates (2 days post sTBI): evident decrease
- concentrations of UTP and ADP (2 days post sTBI): No effects
- de-phosphorylated purines and pyrimidines (2 days post sTBI): positively affected
- nicotinic coenzyme pool and NAD/NADH ratio (2 days post sTBI, 15 mg/kg b.w.): effective only at the maximal dose tested
- Acetyl-CoA [3]: partial rescue
- whole brain NAA [3]: significantly higher than values found in sTBI rats
- high energy phosphates (ATP, GTP, and CTP) vs sTBI (2 days post sTBI, all three dosages (1, 5, 15 mg/kg)): Significantly higher values
- ATP level, lower than the value of controls (7 days post impact (untreated sTBI 35%)): 16%
- NAA concentration, lower than the value of controls (7 days post impact (untreated sTBI 48%)): 16%
- de-phosphorylated purines and pyrimidines (7 days post sTBI): positively affected
- CoA-SH and Acetyl-CoA (7 days post sTBI, 5 or 15 mg/kg b.w. (single and repeat)): Remarkable positive effects
- ATP (7 days post sTBI, any dose tested): significant increases
- concentrations of nicotinic coenzymes (7 days post sTBI, excluding the lowest dose): significant improvement
- ascorbic acid and GSH, with decrease of nitrites and nitrates (7 days post sTBI, highest single and repeat dose): particularly beneficial
- ATP/ADP ratio (7 days post sTBI, increasing dose): progressively increased
- whole brain NAA (7 days post sTBI, increasing single doses or repeat maximal dose): dose dependent increase
- cerebral energy metabolism (7 days post sTBI, more evident above 1 mg/kg b.w.): general improvement
- NAD+ level and NAD/NADH ratio (7 days post sTBI, single and repeat 15 mg/kg b.w.): able to normalize NAD+ level and to restore the correct NAD/NADH ratio
- ADENOSINE concentration in deproteinized brain homogenates (rats, 7 days post-sTBI, repeated administration of 15 mg/kg b.w.): 40.84 ± 30.25 nmol/g w.w.
- GMP concentration in deproteinized brain homogenates (rats, 7 days post-sTBI, single administration of 1 mg/kg b.w.): 113.06 ± 53.51 nmol/g w.w.
- ADENOSINE concentration in deproteinized brain homogenates [4]: 55.95 ± 41.44 nmol/g w.w.
- CDP choline concentration in deproteinized brain homogenates [4]: 10.06 ± 3.23 nmol/g w.w.
